Consider eleven molecules from patent US7935726B1, “Tricyclic pyrones” (Kansas State University Research Foundation, priority 1999, dated 2011).

Bounds are passed on as bounds.

The subject of one series is ACAT. Kind of series: inhibition of ACAT. In kind it is biochemical.
The next series has as its target T1, CETP (Homo sapiens, UniProt P11597).
T1 sequence (P11597 18-493): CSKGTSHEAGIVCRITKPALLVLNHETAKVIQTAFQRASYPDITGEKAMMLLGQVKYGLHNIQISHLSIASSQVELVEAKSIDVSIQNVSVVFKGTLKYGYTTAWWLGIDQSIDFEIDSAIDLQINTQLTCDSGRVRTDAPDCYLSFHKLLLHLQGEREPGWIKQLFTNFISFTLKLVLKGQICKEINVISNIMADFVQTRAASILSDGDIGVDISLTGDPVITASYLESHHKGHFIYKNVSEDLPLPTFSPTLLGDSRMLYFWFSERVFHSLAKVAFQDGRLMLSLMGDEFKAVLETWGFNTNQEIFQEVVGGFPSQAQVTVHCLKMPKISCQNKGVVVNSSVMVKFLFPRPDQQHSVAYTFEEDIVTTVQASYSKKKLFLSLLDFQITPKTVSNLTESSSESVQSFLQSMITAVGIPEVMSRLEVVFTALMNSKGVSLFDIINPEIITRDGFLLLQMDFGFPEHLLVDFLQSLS
Kind of series: inhibition of CETP. In kind it is biochemical. From the text: (§1) The reported procedures for the inhibitory activities of ACAT (Tomoda, H.; Nishida, H.; Masuma, R.; Cao, J.; Okuda, S.; Omura, S. J. Antibiot. 1991, 44, 136-143), CETP (Tomoda, H.; Tabata, N.; Masuma, R.; Si, S.-Y.; Omura, S. J. Antibiot. 1998, 51, 618-623; D. H. Hua et al. Tetrahedron 2003, 59, 4795-4803), L1210 tumor cells (Perchellet, E. M.; Ladesich, J. B.; Magill, M. J.; Chen, Y.; Hua, D. H.; Perchellet, J. P. Anti-Cancer Drugs 1999, 10, 489-504), and APP C99-induced cell death (Jin, L.-W.; Hua, D. H.; Shie, F.-S.; Maezawa, I.; Sopher, B.; Martin, G. M. J. Mol. Neurosci. 2002, 19, 57-61) were followed.
ACAT mediates the esterification of intracellular cholesterol and is believed to play a key role in lipoprotein metabolism and atherogenesis (for a review: Suckling, K. E.; Stange, E. F. J. Lipid Res. 1985, 26, 647-671). […] The inhibition of CETP with these three compounds was then studied. CETP, a hydrophobic neutral glycoprotein, mediates the transfer of cholesteryl ester from high-density lipoprotein to low-density lipoprotein (For a review: Tall, A. R. J. Lipid Res. 1993, 34, 1255-1274). […] The N-(p-nitrophenyl)aspartamide portion of 104 was attached in order to study whether 104 was a substrate of […] (For a review: VIIIa, P.; Kaufmann, S. H.; Earnshaw, W. C. Trends Biochem. Sci. 1997, 22, 388-393). […] Compound 105 is cytotoxic to L1210 tumor cells, with IC50=30 μM. Aggarwal et al., J. Chem. Soc., Perkin Trans I (1999) 3315-3321 is incorporated by reference to the extent not inconsistent with the disclosure herewith.

The next series has as its system MC65 cells. Kind of series: protection from APP C99-induced cell death in MC65 cells. In kind it is cell-based. The conditions noted are these: for protection of MC65 cells from death (in words): MC65 cells conditionally expressing partial APP fusion protein, absence of tetracycline; for EC50: MC65 cells in the absence of tetracycline.
Description: as §1, with “followed. […]” for “followed.”

Series [1] has as its target T2, Human aldose reductase (AR) (Homo sapiens, UniProt P15121).
T2 construct: made in house; host or cells: E. coli
Kind of series: human AR inhibition assay (enzyme assay, NADPH absorption at 340 nm). In kind it is biochemical. The note with it: Table 4. As to the method:
Human aldose reductase (AR) was obtained from overexpression of the human AR gene in an E coli system and was purified by column chromatography using a talon metal affinity column and eluted with a gradient mixture of Tris, NaCl buffer and imidazole solution. The human AR inhibition assay was conducted as follows. In a sample cuvette, 25 mM of D-xylose (75 mg/mL) and 0.15 mM of reduced nicotinamide adenine dinucleotide phosphate (NADPH) (4 mg/mL), and various amount of the inhibitor [in PBS (phosphate buffer saline) solution; the concentration of the inhibitor was determined using UV spectroscopy based on εmax at λmax of the drug] in 700 uL of PBS (a solution made of 1.44 g of Na2HPO4, 0.24 g KH2PO4, 0.2 g KCl, and 8 g NaCl in 1 L of distilled water) buffer (pH=6.1) solution and 200 uL of the AR enzyme (a final volume of 1 mL was obtained). The intensity of absorption of NADPH (λmax=340 nm) was measured. When xylose is reduced to xylitol, NADPH is converted into NADP and the absorption at 340 nm decreases. When AR is inhibited by the drug, the absorption at 340 nm of NADPH remains unchanged. Each assay was repeated three times and an average IC50 value was obtained.

The subject of series [2] is N/N 1003 lens epithelial cells. In words: tissue culture assay: galactitol formation from galactose in lens epithelial cells (GC/MS). In kind it is cell-based. The note with it: Epithelial cell; 10 uM inhibitor; 40 mM galactose media, lens epithelial cells, 48 hours; number of trials in parenthesis. The procedure:
The activity of the drugs is tested in various ways, including tissue culture assays and assays testing aldose reductase inhibition. For the tissue culture assay, a lens epithelial cell line is grown in galactose with or without the drug. Cells are tested for polyol accumulation by GC/mass spectrometry. Levels of PKC are tested in homogenized cell pellets or in samples of lens, retina or sciatic nerves from treated patients. Tissue is homogenized and tested for PKCγ levels using Western blots. These procedures are described in more detail below.
The ability of the drugs to inhibit galactitol formation from galactose was also studied in N/N 1003 lens epithelial cells. Two sets of lens cells were grown in media with […] 40 mM galactose. Various concentrations of inhibitors were added initially and the cells were grown for 48 hours. The cells were lysed and galactose and galactitol were extracted out and the concentrations were determined using gas chromatography and mass spectrometry by silylating the crude extract with excess of trimethylsilyl chloride, trimethylsilyl imidazole and pyridine at 70° C. for 1 h.
40 mM galactose media was supplemented with 10 uM inhibitor and fed to lens epithelial cells for 48 hours.

As for `CC(CO)[C@H]1CCC2=Cc3c(cc(CC(=O)OCc4ccccc4)oc3=O)O[C@H]2C1` (mixture of isomers) [Compound 102, Benzyl (5aS,7S)-{7-[(1R)- and (1S)-2-hydroxy-1-methylethyl]-1H,7H-5a,6,8,9-tetrahydro-1-oxopyrano[4,3-b][1]benzopyran-3-yl}acetate], the IC50 with ACAT is 310 µM; at CETP, more than 100 µM.
Turning to `CC(CO)[C@H]1CC[C@@H]2[C@H](C1)Oc1cc(CC(=O)OCc3ccccc3)oc(=O)c1[C@H]2O` (mixture of isomers) [Compound 103, Benzyl (5aS,7S,9aS,10S)-{10-hydroxy-7-[(1R) and (1S)-2-hydroxy-1-methylethyl]-1H,7H-5a,6,8,9-tetrahydro-1-oxopyrano[4,3-b][1]benzopyran-3-yl}acetate], the IC50 in the series with ACAT worked out at 150 µM; against CETP, 75 µM.
Turning to `Cc1cc2c(c(=O)o1)C=C1CC[C@H](C(C)Cn3cnc(N)c4ncnc3-4)C[C@@H]1O2` (mixture of isomers) [Compound 106, (5aS,7S)-7-[(1R) and (1S)-2-(N-3-adenyl)-1-methylethyl]-3-methyl-1H,7H-5a,6,8,9-tetrahydro-1-oxopyrano[4,3-b][1]benzopyran], the IC50 in the series with ACAT was more than 500 µM. At CETP, this molecule returned a 50% inhibitory concentration (IC50) of more than 250 µM. In the series with MC65 cells, the “protection of MC65 cells from death (in words)” value (from here on “protection of MC65 cells”) is “protected from death” and a half-maximal effect (EC50) was put at 0.15 µM.
Regarding `Cc1cc2c(c(=O)o1)C=C1CC[C@H](C(C)CNc3ncnc4[nH]cnc34)C[C@@H]1O2` (mixture of isomers) [Compound 107, (5aS,7S)-7-[(1R) and (1S)-2-(N10-Adenyl)-1-methylethyl]-3-methyl-1H,7H-5a,6,8,9-tetrahydro-1-oxopyrano[4,3-b][1]benzopyran], in the series on MC65 cells, the “protection of MC65 cells” value was “inactive” and the 50% effective concentration (EC50) was more than 3 µM.
Regarding `Nc1ncnc2nc[nH]c12` [Adenine, reference compound], in the series on MC65 cells, the “protection of MC65 cells” value is listed as “no activity” and the EC50 was more than 10 µM.
In the case of `O=C(O)C(O)Cc1cc2c(c(=O)o1)C=C1CCCCC1O2` (stereo not drawn) [Compound 3, 2-Hydroxy-3-{1H,7H-5a,6,8,9-tetrahydro-1-oxopyrano[4,3-b][1]benzopyran-3-yl}-propanoic acid], in series [1] (read-out: IC50 values obtained from the enzyme assay (aldose reductase)), the IC50 is more than 500 µM. For the same molecule, in series [2], the inhibition at 10 µM was less than 10%.
Turning to `O=C(O)CCc1cc2c(c(=O)o1)C=C1CCCCC1O2` (stereo not drawn) [Compound 5a], the water solubility result in “water solubility” is on record as “water soluble”.
For `C=C(C)[C@H]1CCC2=Cc3c(cc(CC(=O)O)oc3=O)O[C@H]2C1` [Compound 6, {(5aS,7S)-7-Isopropenyl-1H,7H-5a,6,8,9-tetrahydro-1-oxopyrano[4,3-b][1]-benzopyran-3-yl}acetic acid], the “IC50 values obtained from the enzyme assay (aldose reductase)” value in series [1] is on record as “No significant inhibition detected”.
Same read-out and setting: as for `CC(CO)[C@H]1CCC2=Cc3c(cc(CC(=O)O)oc3=O)O[C@H]2C1` (stereo partly drawn) [Compound 7], the entry is “No significant inhibition detected”.
With `C=C(C)[C@H]1CCC2=Cc3c(cc(CC(=O)OCc4ccccc4)oc3=O)O[C@H]2C1` [Compound 101, Benzyl (5aS,7S)-{7-isopropenyl-1H,7H-5a,6,8,9-tetrahydro-1-oxopyrano[4,3-b][1]benzopyran-3-yl}acetate], the half-inhibitory concentration (IC50) with ACAT was 157 µM; at CETP, more than 100 µM.
Take `C=C(C)[C@H]1CCC2=Cc3c(cc(C)oc3=O)O[C@H]2C1` [Compound 108]: the IC50 in the series with ACAT amounted to 167 µM. In the series with MC65 cells, this molecule displayed an EC50 of more than 10 µM.

The term IC50 denotes the concentration that gives 50% inhibition. As usually defined, the EC50 is the concentration that produces a half-maximal response. By inhibition is commonly meant the percentage by which the read-out fell short of the control.
